Test results reported in US20070049564A1 (Wyeth, priority 2005, published 2007).
≈ marks a conversion by molar mass, not a printed value. Read-outs that look alike come from different tables or passages of the source.

Legend:
E. coli GC 2236 = assay: MIC, broth microdilution; details: Escherichia coli, GC2236, E. coli GC 2236
Protocol: Antimicrobial susceptibility testing. The in vitro activities of the antibiotics are determined by the broth microdilution method as recommended by the National Committee for Clinical Laboratory Standards (NCCLS) (1). Mueller-Hinton II broth (MHBII)(BBL Cockeysville, Md.) is the medium employed in the testing procedures. Microtiter plates containing serial dilutions of each antimicrobial agent are inoculated with each organism to yield the appropriate density (10^5 CFU/ml) in a 100 μl final volume. The plates are incubated for 18-22 hours at 35° C. in ambient air. […] Standard Pharmacological Test Procedures
Presented in Tables I-XIII are representative compounds of Formula I which were evaluated against a panel of 40 selected gram-positive and gram-negative bacteria strains by pre-incubation in water, mouse serum or human serum. Representative compounds were first incubated in mouse serum for an hour prior to the in vitro testing against a panel of selected gram-positive and gram-negative bacteria strains. All compounds were also pre-incubated in water for an hour prior to testing as control. Representative compounds of Formula I were incubated in human serum prior to MIC determination.

E. coli GC 2231 = assay: MIC, broth microdilution; details: Escherichia coli, GC2231, E. coli GC 2231
E. coli GC 2232 = assay: MIC, broth microdilution; details: Escherichia coli, GC2232, E. coli GC 2232
E. coli GC 2272 = assay: MIC, broth microdilution; details: Escherichia coli, GC2272, E. coli GC 2272
P. aeruginosa GC 2214 = assay: MIC, broth microdilution; details: Pseudomonas aeruginosa, GC2214, P. aeruginosa GC 2214
S. aureus GC 1131 = assay: MIC, broth microdilution; details: Staphylococcus aureus, GC1131, S. aureus GC 1131
S. aureus GC 4536 = assay: MIC, broth microdilution; details: Staphylococcus aureus, GC4536, S. aureus GC 4536
S. aureus GC 2216 = assay: MIC, broth microdilution; details: Staphylococcus aureus, GC2216, S. aureus GC 2216
S. epidermidis GC 4935 = assay: MIC, broth microdilution; details: Staphylococcus epidermidis, GC4935, S. epidermidis GC 4935
E. faecalis GC 4555 = assay: MIC, broth microdilution; details: Enterococcus faecalis, GC4555, E. faecalis GC 4555
E. faecalis GC 2265 = assay: MIC, broth microdilution; details: Enterococcus faecalis, GC2265, E. faecalis GC 2265
E. faecalis GC 2267 = assay: MIC, broth microdilution; details: Enterococcus faecalis, GC2267, E. faecalis GC 2267
E. faecalis GC 2242 = assay: MIC, broth microdilution; details: Enterococcus faecalis, GC2242, E. faecalis GC 2242
E. faecium GC 2243 = assay: MIC, broth microdilution; details: Enterococcus faecium, GC2243, E. faecium GC 2243
S. pneumoniae* GC 4465 = assay: MIC, broth microdilution; details: Streptococcus pneumoniae, S. pneumoniae* GC 4465
S. pneumoniae+ GC 4465 = assay: MIC, broth microdilution; details: Streptococcus pneumoniae, S. pneumoniae+ GC 4465
c. albicans GC 3066 = assay: MIC, broth microdilution
E. coli = assay: Range of MIC for E. coli strains; details: Escherichia coli
Staph. = assay: Range of MIC for Staph. strains, including MRSA; details: Staphylococcus aureus, MRSA
Staph. aureus Smith = assay: In vivo activity (oral, iv; ED50) against Staph. aureus Smith in mice
Protocol: Representative examples of compounds of Formula I were tested for the oral efficacy using S. aureus Smith in mice.

[1] = c. albicans GC 3066, Water pre-incubation
[2] = 20 h, read-out: Range of MIC, E. coli (Mouse Serum)
[3] = read-out: Range of MIC, E. coli (mouse serum)
[4] = read-out: Range of MIC, Staph (Mouse Serum)
[5] = read-out: Range of MIC, Staph (Water)
[6] = read-out: Range of MIC, Staph. (mouse serum)
[7] = read-out: Range of MIC, Staph. (water)
[8] = Staphylococcus aureus, in Mus musculus, po, read-out: ED50 Staph Smith SOD
[9] = iv, read-out: ED50 Staph Smith SIV

CCCN(CC(=O)Nc1cc(N(C)C)c2c(c1O)C(=O)C1=C(O)[C@]3(O)C(=O)C(C(N)=O)=C(O)[C@@H](N(C)C)[C@@H]3C[C@@H]1C2)C(=O)OCOC(=O)C1CCC1 [Example 7, ({[(2-{[(5aR,6aS,7S,10aS)-9-(aminocarbonyl)-4,7-bis(dimethylamino)-1,8,10a,11-tetrahydroxy-10,12-dioxo-5,5a,6,6a,7,10,10a,12-octahydrotetracen-2-yl]amino}-2-oxoethyl)(propyl)amino]carbonyl}oxy)methyl cyclobutanecarboxylate]
MIC (E. coli GC 2236; Mouse Serum pre-incubation): 0.25 µg/mL (≈ 0.344 µM) | MIC (E. coli GC 2236; Water pre-incubation): 2 µg/mL (≈ 2.75 µM) | MIC (E. coli GC 2231; Mouse Serum pre-incubation): 2 µg/mL (≈ 2.75 µM) | MIC (E. coli GC 2231; Water pre-incubation): 16 µg/mL (≈ 22 µM) | MIC (E. coli GC 2232; Mouse Serum pre-incubation): 0.5 µg/mL (≈ 0.687 µM) | MIC (E. coli GC 2232; Water pre-incubation): 4 µg/mL (≈ 5.5 µM) | MIC (E. coli GC 2272; Mouse Serum pre-incubation): 0.5 µg/mL (≈ 0.687 µM) | MIC (E. coli GC 2272; Water pre-incubation): 4 µg/mL (≈ 5.5 µM) | MIC (P. aeruginosa GC 2214; Mouse Serum pre-incubation): 16 µg/mL (≈ 22 µM) | MIC (P. aeruginosa GC 2214; Water pre-incubation): > 64 µg/mL | MIC (S. aureus GC 1131; Mouse Serum pre-incubation): 1 µg/mL (≈ 1.37 µM) | MIC (S. aureus GC 1131; Water pre-incubation): 1 µg/mL (≈ 1.37 µM) | MIC (S. aureus GC 4536; Mouse Serum pre-incubation): 1 µg/mL (≈ 1.37 µM) | MIC (S. aureus GC 4536; Water pre-incubation): 1 µg/mL (≈ 1.37 µM) | MIC (S. aureus GC 2216; Mouse Serum pre-incubation): 0.5 µg/mL (≈ 0.687 µM) | MIC (S. aureus GC 2216; Water pre-incubation): 0.5 µg/mL (≈ 0.687 µM) | MIC (S. epidermidis GC 4935; Mouse Serum pre-incubation): 2 µg/mL (≈ 2.75 µM) | MIC (S. epidermidis GC 4935; Water pre-incubation): 2 µg/mL (≈ 2.75 µM) | MIC (E. faecalis GC 4555; Mouse Serum pre-incubation): 0.5 µg/mL (≈ 0.687 µM) | MIC (E. faecalis GC 4555; Water pre-incubation): 1 µg/mL (≈ 1.37 µM) | MIC (E. faecalis GC 2265; Mouse Serum pre-incubation): 1 µg/mL (≈ 1.37 µM) | MIC (E. faecalis GC 2265; Water pre-incubation): 2 µg/mL (≈ 2.75 µM) | MIC (E. faecalis GC 2267; Mouse Serum pre-incubation): 1 µg/mL (≈ 1.37 µM) | MIC (E. faecalis GC 2267; Water pre-incubation): 2 µg/mL (≈ 2.75 µM) | MIC (E. faecalis GC 2242; Mouse Serum pre-incubation): 1 µg/mL (≈ 1.37 µM) | MIC (E. faecalis GC 2242; Water pre-incubation): 1 µg/mL (≈ 1.37 µM) | MIC (E. faecium GC 2243; Mouse Serum pre-incubation): 0.25 µg/mL (≈ 0.344 µM) | MIC (E. faecium GC 2243; Water pre-incubation): 0.12 µg/mL (≈ 0.165 µM) | MIC (S. pneumoniae* GC 4465; Mouse Serum pre-incubation): 0.25 µg/mL (≈ 0.344 µM) | MIC (S. pneumoniae* GC 4465; Water pre-incubation): 0.12 µg/mL (≈ 0.165 µM) | MIC (S. pneumoniae+ GC 4465; Mouse Serum pre-incubation): 4 µg/mL (≈ 5.5 µM) | MIC (S. pneumoniae+ GC 4465; Water pre-incubation): 2 µg/mL (≈ 2.75 µM) | MIC (c. albicans GC 3066; Candida albicans, GC3066): > 64 µg/mL | MIC (c. albicans GC 3066; [1]): >64 UG/ML | MIC (E. coli; [2]): 0.25 to 2 µg/mL (≈ 0.344 to 2.75 µM) | MIC (E. coli; read-out: Range of MIC, E. coli (Water)): 2 to 16 µg/mL (≈ 2.75 to 22 µM) | MIC (E. coli; [3]): 0.25 to 2 µg/mL (≈ 0.344 to 2.75 µM) | MIC (E. coli; read-out: Range of MIC, E. coli (water)): 2 to 16 µg/mL (≈ 2.75 to 22 µM) | MIC (Staph.; [4]): 0.5 to 4 µg/mL (≈ 0.687 to 5.5 µM) | MIC (Staph.; [5]): 0.5 to 4 µg/mL (≈ 0.687 to 5.5 µM) | MIC (Staph.; [6]): 0.5 to 4 µg/mL (≈ 0.687 to 5.5 µM) | MIC (Staph.; [7]): 0.5 to 4 µg/mL (≈ 0.687 to 5.5 µM) | ED50 (Staph. aureus Smith; [8]): 16.1 mg/kg | ED50 (Staph. aureus Smith; [9]): 0.52 mg/kg

CCCN(CC(=O)Nc1cc(N(C)C)c2c(c1O)C(=O)C1=C(O)[C@]3(O)C(=O)C(C(N)=O)=C(O)[C@@H](N(C)C)[C@@H]3C[C@@H]1C2)C(=O)OCOC(=O)c1ccc(F)cc1 [Example 8, ({[(2-{[(5aR,6aS,7S,10aS)-9-(aminocarbonyl)-4,7-bis(dimethylamino)-1,8,10a,11-tetrahydroxy-10,12-dioxo-5,5a,6,6a,7,10,10a,12-octahydrotetracen-2-yl]amino}-2-oxoethyl)(propyl)amino]carbonyl}oxy)methyl 4-fluorobenzoate]
MIC (E. coli GC 2236; Mouse Serum pre-incubation): 1 µg/mL (≈ 1.3 µM) | MIC (E. coli GC 2236; Water pre-incubation): 32 µg/mL (≈ 41.7 µM) | MIC (E. coli GC 2231; Mouse Serum pre-incubation): 2 µg/mL (≈ 2.6 µM) | MIC (E. coli GC 2231; Water pre-incubation): > 64 µg/mL | MIC (E. coli GC 2232; Mouse Serum pre-incubation): 1 µg/mL (≈ 1.3 µM) | MIC (E. coli GC 2232; Water pre-incubation): 32 µg/mL (≈ 41.7 µM) | MIC (E. coli GC 2272; Mouse Serum pre-incubation): 1 µg/mL (≈ 1.3 µM) | MIC (E. coli GC 2272; Water pre-incubation): 32 µg/mL (≈ 41.7 µM) | MIC (P. aeruginosa GC 2214; Mouse Serum pre-incubation): 32 µg/mL (≈ 41.7 µM) | MIC (P. aeruginosa GC 2214; Water pre-incubation): > 64 µg/mL | MIC (S. aureus GC 1131; Mouse Serum pre-incubation): 1 µg/mL (≈ 1.3 µM) | MIC (S. aureus GC 1131; Water pre-incubation): 2 µg/mL (≈ 2.6 µM) | MIC (S. aureus GC 4536; Mouse Serum pre-incubation): 0.5 µg/mL (≈ 0.651 µM) | MIC (S. aureus GC 4536; Water pre-incubation): 2 µg/mL (≈ 2.6 µM) | MIC (S. aureus GC 2216; Mouse Serum pre-incubation): 0.5 µg/mL (≈ 0.651 µM) | MIC (S. aureus GC 2216; Water pre-incubation): 4 µg/mL (≈ 5.21 µM) | MIC (S. epidermidis GC 4935; Mouse Serum pre-incubation): 2 µg/mL (≈ 2.6 µM) | MIC (S. epidermidis GC 4935; Water pre-incubation): 8 µg/mL (≈ 10.4 µM) | MIC (E. faecalis GC 4555; Mouse Serum pre-incubation): 0.5 µg/mL (≈ 0.651 µM) | MIC (E. faecalis GC 4555; Water pre-incubation): 8 µg/mL (≈ 10.4 µM) | MIC (E. faecalis GC 2265; Mouse Serum pre-incubation): 2 µg/mL (≈ 2.6 µM) | MIC (E. faecalis GC 2265; Water pre-incubation): 8 µg/mL (≈ 10.4 µM) | MIC (E. faecalis GC 2267; Mouse Serum pre-incubation): 2 µg/mL (≈ 2.6 µM) | MIC (E. faecalis GC 2267; Water pre-incubation): 8 µg/mL (≈ 10.4 µM) | MIC (E. faecalis GC 2242; Mouse Serum pre-incubation): 1 µg/mL (≈ 1.3 µM) | MIC (E. faecalis GC 2242; Water pre-incubation): 4 µg/mL (≈ 5.21 µM) | MIC (E. faecium GC 2243; Mouse Serum pre-incubation): 0.25 µg/mL (≈ 0.326 µM) | MIC (E. faecium GC 2243; Water pre-incubation): 2 µg/mL (≈ 2.6 µM) | MIC (S. pneumoniae* GC 4465; Mouse Serum pre-incubation): < 0.06 µg/mL | MIC (S. pneumoniae* GC 4465; Water pre-incubation): 0.25 µg/mL (≈ 0.326 µM) | MIC (S. pneumoniae+ GC 4465; Mouse Serum pre-incubation): 1 µg/mL (≈ 1.3 µM) | MIC (S. pneumoniae+ GC 4465; Water pre-incubation): 4 µg/mL (≈ 5.21 µM) | MIC (c. albicans GC 3066; Candida albicans, GC3066): > 64 µg/mL | MIC (c. albicans GC 3066; [1]): >64 UG/ML | MIC (E. coli; [2]): 1 to 2 µg/mL (≈ 1.3 to 2.6 µM) | MIC (E. coli; [3]): 1 to 2 µg/mL (≈ 1.3 to 2.6 µM) | MIC (Staph.; [4]): 0.5 to 4 µg/mL (≈ 0.651 to 5.21 µM) | MIC (Staph.; [5]): 1 to 8 µg/mL (≈ 1.3 to 10.4 µM) | MIC (Staph.; [6]): 0.5 to 4 µg/mL (≈ 0.651 to 5.21 µM) | MIC (Staph.; [7]): 1 to 8 µg/mL (≈ 1.3 to 10.4 µM) | ED50 (Staph. aureus Smith; [8]): 16.6 mg/kg | ED50 (Staph. aureus Smith; [9]): 0.48 mg/kg
